Source: patent US20100329996A1, “Novel Combination of Therapeutic Agents” (Glaxo Group Limited, priority 2007, published 2010)

Columns and labels:
[1] = test system: healthy male ipratropium-responsive subjects; assay: clinical trial, single escalating inhaled doses, airway conductance (sGaw); assay type: in vivo, human; details: for increase in airway conductance (sGaw) versus placebo, significance: all doses (bromide compound 20-350 mcg via Diskus; tiotropium 18 mcg), healthy subjects
From the text: In another clinical trial using a binary mixture of the bromide compound and lactose monohydrate, the safety, tolerability, pharmacodynamics and pharmacokinetics of single escalating doses of the bromide compound (20, 60, 100, 250 and 350 mcg via the Diskus), and tiotropium (18 mcg) in 20 healthy male ipratropium-responsive subjects were compared.

[2] = test system: isolated human bronchial strips; assay: inhibition of carbachol-induced contraction of isolated human bronchial strips; assay type: cell-based; details: for offset half time: 10 nM; for onset half time to 50% inhibition of carbachol-induced contraction: single concentration of 10 nM
[3] = human clinical trial, bronchodilation and onset of action; assay type: in vivo
[4] = test system: male and female ipratropium-responsive COPD subjects; assay: clinical study, single inhaled doses, FEV1; assay type: in vivo, human
Description: A third clinical study assessed the safety, tolerability, pharmacodynamics and pharmacokinetics of single inhaled doses of the bromide compound (20, 50 and 100 mcg via Diskus), and tiotropium (18 mcg) in 31 male and female ipratropium-responsive COPD subjects.
Mean FEV1 values peaked at 2 hours and decreased consistently to 24 hours for each dose.

[5] = test system: M1 and M3 receptors over the M2 receptors; assay: muscarinic receptor subtype selectivity and antagonist character; assay type: binding
[6] = test system: muscarinic acetylcholine (Ach) receptor; assay: off-rate at the muscarinic acetylcholine receptor; assay type: binding
From the text: This is known to be predictive of a long duration of action. Therefore, while a twice daily dosing at 10-100 mcg/dose may be used, if the dose is increased, such as to 100-200 mcg/dose, once daily dosing may be a suitable alternative.

[7] = stability of formulation with magnesium stearate; assay type: physicochemical; details: addition of magnesium stearate in the formulation, under conditions tested

| SMILES | increase in airway conductance (sGaw) versus placebo, significance [1] | offset half time [2] | onset half time to 50% inhibition of carbachol-induced contraction [2] | onset of action in human clinical trial ([3]; compared with tiotropium) | bronchodilator efficacy in human clinical trial ([3]; human, in vivo) | increase in sGaw compared with placebo ([1]; 20 mcg dose, after 24 hours) | FEV1 adjusted mean difference versus placebo ([4]; 20 mcg, 12 hours) | FEV1 adjusted mean difference versus placebo ([4]; 20 mcg, 24 hours) | FEV1 adjusted mean difference versus placebo ([4]; 50 mcg, 12 hours) | FEV1 adjusted mean difference versus placebo ([4]; 50 mcg, 24 hours) | FEV1 adjusted mean difference versus placebo ([4]; 100 mcg, 12 hours) | FEV1 adjusted mean difference versus placebo ([4]; 100 mcg, 24 hours) | Mean FEV1 versus placebo, significance ([4]; all doses (20, 50, 100 mcg), each time point over 24 hours, COPD subjects) | time of peak mean FEV1 ([4]; each dose (20, 50, 100 mcg)) | muscarinic receptor antagonist character [5] | reversibility of antagonism [5] | selectivity for the M1 and M3 receptors over the M2 receptors [5] | off-rate at the muscarinic acetylcholine (Ach) receptor [6] | stabilization of the product on stability [7] |
| --- | --- | --- | --- | --- | --- | --- | --- | --- | --- | --- | --- | --- | --- | --- | --- | --- | --- | --- | --- |
| C[N+]1(C)[C@@H]2C[C@@H](OC(=O)C(O)(c3cccs3)c3cccs3)C[C@H]1[C@@H]1O[C@@H]12 [tiotropium, tiotropium bromide, reference compound] | statistically significantly greater increases | 314 min | 10 min |  |  |  |  |  |  |  |  |  |  |  |  |  |  |  |  |
| C[N+]1(C)[C@@H]2CC[C@H]1C[C@@H](CC(C#N)(c1ccccc1)c1ccccc1)C2.[Br-] [bromide compound, (Endo)-3-(2-cyano-2,2-diphenyl-ethyl)-8,8-dimethyl-8-azonia-bicyclo[3.2.1]octane bromide] | statistically significantly greater increases | 195 min | 25 min | faster onset of action than tiotropium | effective long-acting anti-muscarinic bronchodilator | 16% | 241 mL | 135 mL | 288 mL | 136 mL | 305 mL | above 200 mL | statistically significantly higher than placebo | 2 h | high-affinity, pan-active, competitive and reversible | partially reversible antagonist | 10 fold | slow |  |
| C[N+]1(C)C2CCC1CC(CC(C#N)(c1ccccc1)c1ccccc1)C2 (stereo not drawn) [Compound (I), (Endo)-3-(2-cyano-2,2-diphenyl-ethyl)-8,8-dimethyl-8-azonia-bicyclo[3.2.1]octane] |  |  |  |  |  |  |  |  |  |  |  |  |  |  |  |  |  |  | some improvement in stabilization |
